Reference: patent US20250205257A1 (priority 2022, published 2025)

Key:
[1] = test system: recombinant ASFV genotype II Georgia virus, GeorgiaDMGFB; assay type: cell-based, African swine fever virus
ASFV Georgia 2007/1 = assay: microbe, parasite or virus in culture; assay type: cell-based; conditions: African swine fever virus, PBMC, 72 h, read-out: EC50 Georgia 2007/1
ASFV KAB6/2 = assay: microbe, parasite or virus in culture; assay type: cell-based; conditions: African swine fever virus, PBMC, 72 h, read-out: EC50 KAB6/2
ASFV BOT 1/99 = assay: microbe, parasite or virus in culture; assay type: cell-based; conditions: African swine fever virus, PBMC, 72 h, read-out: EC50 BOT P1/99
ASFV Magadi w/hog 9 = assay: microbe, parasite or virus in culture; assay type: cell-based; conditions: African swine fever virus, PBMC, 72 h, read-out: EC50 Magadi w/hog 9
[2] = test system: ASFV strain Georgia 2007/1; conditions: pig, in vivo
[3] = test system: ASFV strain Georgia 2007/1; conditions: pig, in vivo, po, 30 mg/kg
[4] = pig, in vivo
porcine kidney cells = conditions: pig
in vivo = conditions: pig
in vitro = conditions: pig, CC50 (50% cytotoxic concentration)

SMILES: CCCCCCCCCCCCCCCCCCOCCOP1(=O)CO[C@@H](Cn2ccc(N)nc2=O)CO1 (stereo partly drawn) [Compound 4, Octadecyloxyethyl ester of cHPMPC]
- efficacy compared to cHPMPC [1]: greatly increased efficacy
- selectivity indices [1]: thousands

SMILES: CC(C)OC(=O)OCOP1(=O)CO[C@@H](Cn2ccc(N)nc2=O)CO1 (stereo partly drawn) [Compound 2, Isopropyloxycarbonyloxymethyl ester of cHPMPC]
- efficacy compared to cHPMPC [1]: intermediate

SMILES: CC(C)OC(=O)[C@H](C)NP1(=O)CO[C@@H](Cn2ccc(N)nc2=O)CO1 (stereo partly drawn) [Compound 5, Isopropyl L-alaninyl cHPMPC]
- efficacy compared to cHPMPC [1]: intermediate

SMILES: Nc1ccn(C[C@H]2COP(=O)(O)CO2)c(=O)n1 [cHPMPC, cyclic cidofovir]
- EC50 (ASFV Georgia 2007/1): 310 ± 170 nM
- EC50 (ASFV KAB6/2): 590 ± 80 nM
- EC50 (ASFV BOT 1/99): 300 ± 200 nM
- EC50 (ASFV Magadi w/hog 9): 110 ± 50 nM
- pigs survived until the end of the study (day 27 post ASFV challenge) with no ASF disease [2]: 2 pigs
- ASFV genome copies in blood on termination days compared to control pigs ([2]; po, 30 mg/kg): reduced
- ASFV genome copies in swab samples on termination days compared to control pigs ([2]; po, 30 mg/kg): reduced
- median survival ([2]; po, 30 mg/kg): 19.5 days
- pigs euthanized at moderate severity humane endpoint on day 6 showing reduced ASF disease ([2]; po, 30 mg/kg): 2 pigs
- pigs euthanized at moderate severity humane endpoint on day 19 and day 20 with delayed and reduced ASF disease ([2]; po, 30 mg/kg): 2 pigs
- ASF viraemia [3]: significantly reduced
- ASF viral genome copies in organs (lungs, spleens, lymph nodes) compared to placebo [3]: significantly reduced
- median survival / median day of death [3]: 8 days
- concentration above which mNeon Green expression was not observed [1]: > 0.05 µM
- other adverse events [4]: No other adverse events were recorded
- tolerability [4]: well tolerated
- injection site observation 1 hour post intravenous dosing ([4]; iv, 5 mg/kg): redness at injection site was observed in all pigs
- injection site observation 4 hour post intravenous administration ([4]; iv, 5 mg/kg): no injection site reactions were observed
- CC50 (porcine kidney cells): 59000 nM
- half-life (in vivo; iv, 5 mg/kg): 3.31 h
- AUC (in vivo; iv, 5 mg/kg, AUC, analyte VV03-0035): 71.6 µM·h
- AUC (in vivo; iv, 5 mg/kg, exposure (AUC) of VV03-0035, range across pigs): 58 to 95.4 µM·h
- half-life (in vivo; po, 25 mg/kg): 3.51 h
- AUC (in vivo; po, 25 mg/kg, AUC, analyte VV03-0035): 11.6 µM·h
- AUC (in vivo; po, 25 mg/kg, exposure (AUC) of VV03-0035, range across pigs): 2.32 to 23.7 µM·h
- CC50 (in vitro): 47000 nM

SMILES: CC(C)(C)C(=O)OCOP1(=O)CO[C@@H](Cn2ccc(N)nc2=O)CO1 (stereo partly drawn) [Compound 1, Pivaloyloxymethyl ester of cHPMPC]
- efficacy compared to cHPMPC [1]: intermediate

SMILES: CCCCCCCCCCCCCCCCOCCCOP1(=O)CO[C@@H](Cn2ccc(N)nc2=O)CO1 (stereo partly drawn) [Compound 3, Hexadecyloxypropyl ester of cHPMPC]
- efficacy compared to cHPMPC [1]: greatly increased efficacy
- selectivity indices [1]: thousands
